Results as given in patent publication US20250206727A1, “HETEROCYCLIC SUBSTITUTED AROMATIC COMPOUND, PREPARATION METHOD THEREFOR, HERBICIDAL COMPOSITION AND APPLICATION” (QINGDAO KINGAGROOT CHEMICAL COMPOUND CO., LTD., priority 2022, published 2025).

Legend:
Experiment in all cases: Post-emergence test on weeds (greenhouse, spray at 2-3 leaf stage)
Assay type in all cases: in vivo
Parameters in all cases: key: Level 10: completely dead; Level 9: growth control rate greater than or equal to 90% and less than 100%; Level 8: growth control rate greater than or equal to 80% and less than 90%; Level 7: growth control rate greater than or equal to 70% and less than 80%; Level 6: growth control rate greater than or equal to 60% and less than 70%; Level 5: growth control rate greater than or equal to 50% and less than 60%; Level 4: growth control rate greater than or equal to 40% and less than 50%; Level 3: growth control rate greater than or equal to 30% and less than 40%; Level 2: growth control rate greater than or equal to 20% and less than 30%; Level 1: growth control rate less than 20%; Level 0: no effect
Details in all cases: 60 g a.i./ha, 3 weeks after application
Digitaria sanguinalis = test system: Digitaria sanguinalis
How it was run: (§1)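 Pot-grown plants were spray-tower treated two weeks after sowing with compound in acetone/Tween 80 plus 1.5 L/ha methyl oleate EC, at rates from 500 to 7.5 g a.i./ha. Fresh-weight growth control was scored 0–10 after 3 weeks in the greenhouse, averaged over triplicates.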

Abutilon theophrasti = test system: Abutilon theophrasti
How it was run: as §1

Amaranthus retroflexus = test system: Amaranthus retroflexus
How it was run: as §1

Veronica polita = test system: Veronica polita
How it was run: as §1

Echinochloa crus-galli = test system: Echinochloa crus-galli
How it was run: as §1

Setaria viridis = test system: Setaria viridis
How it was run: as §1

CC(C#N)OC(=O)C1(C)ON=C(c2cc(-c3ncc(C(F)(F)F)cc3Cl)c(F)cc2Cl)O1 (stereo not drawn) [Compound 116]
10: activity level (fresh weight growth control rate), Digitaria sanguinalis (Digitaria sanguinalis) | activity level (fresh weight growth control rate), Abutilon theophrasti (Abutilon theophrasti) | activity level (fresh weight growth control rate), Amaranthus retroflexus (Amaranthus retroflexus) | activity level (fresh weight growth control rate), Veronica polita (Veronica polita) | activity level (fresh weight growth control rate), Echinochloa crus-galli (Echinochloa crus-galli) | activity level (fresh weight growth control rate), Setaria viridis (Setaria viridis)

CC1(C(=O)OCC2CC2)ON=C(c2cc(-c3ncc(C(F)(F)F)cc3Cl)c(F)cc2Cl)O1 (stereo not drawn) [Compound 126]
10: activity level (fresh weight growth control rate), Digitaria sanguinalis (Digitaria sanguinalis) | activity level (fresh weight growth control rate), Abutilon theophrasti (Abutilon theophrasti) | activity level (fresh weight growth control rate), Amaranthus retroflexus (Amaranthus retroflexus) | activity level (fresh weight growth control rate), Veronica polita (Veronica polita) | activity level (fresh weight growth control rate), Echinochloa crus-galli (Echinochloa crus-galli) | activity level (fresh weight growth control rate), Setaria viridis (Setaria viridis)

CC1(C(=O)OC2CCCC2)ON=C(c2cc(-c3ncc(C(F)(F)F)cc3Cl)c(F)cc2Cl)O1 (stereo not drawn) [Compound 127]
10: activity level (fresh weight growth control rate), Digitaria sanguinalis (Digitaria sanguinalis) | activity level (fresh weight growth control rate), Abutilon theophrasti (Abutilon theophrasti) | activity level (fresh weight growth control rate), Amaranthus retroflexus (Amaranthus retroflexus) | activity level (fresh weight growth control rate), Veronica polita (Veronica polita) | activity level (fresh weight growth control rate), Echinochloa crus-galli (Echinochloa crus-galli) | activity level (fresh weight growth control rate), Setaria viridis (Setaria viridis)
